# pIC50: −log10 of the molar value. Where two headings read alike, the source gives them in different places.
# What was measured:
# [1] = system: SARS-CoV-2 B.1.351 variant; test: microbe, parasite or virus in culture; assay type: cell-based; settings: Severe acute respiratory syndrome coronavirus 2, Huh-7.5.1, 48 h, read-out: IC50, SARS-CoV-2 B.1.351 in Huh7.5.1 cells
# [2] = system: SARS-CoV-2 B.1.351 variant
# [3] = system: SARS-CoV-2 B.1.351 variant; test: microbe, parasite or virus in culture; settings: Severe acute respiratory syndrome coronavirus 2, A549-ACE2, 48 h, read-out: IC50, SARS-CoV-2 B.1.351
Compound,pIC50 [1],Inhibitory effect in B.1.351-infected cells (in words) [2],"SI (CC50/IC50), SARS-CoV-2 B.1.351 [2]",pIC50 [3]
COc1ccc2cc1Oc1ccc(cc1)C[C@H]1c3c(cc4c(c3Oc3cc5c(cc3OC)CCN(C)[C@@H]5C2)OCO4)CCN1C [Cepharanthine],7.22,exerted inhibitory effects,128.83,6.62
COc1cc2c(cc1OC)[C@@H]1C(=O)c3ccc4c(c3O[C@@H]1CO2)C=CC(C)(C)O4 [Deguelin],–,exerted inhibitory effects,7.44,5.33
CNC(=O)c1cc(Oc2ccc(NC(=O)Nc3ccc(Cl)c(C(F)(F)F)c3)cc2)ccn1 [Sorafenib],–,exerted inhibitory effects,7.6,5.77
CN1CCN(CCCN2c3ccccc3Sc3ccc(C(F)(F)F)cc32)CC1 [Trifluoperazine],–,exerted inhibitory effects,13.25,5.55
